Molecular target: T1, nanoLuc TRAP1 (Homo sapiens, UniProt Q12931)
T1 construct: expressed in transfected cells; host or cells: SHSY5Y cells, transient transfection with FuGENE HD
T1 sequence (Q12931 60-704): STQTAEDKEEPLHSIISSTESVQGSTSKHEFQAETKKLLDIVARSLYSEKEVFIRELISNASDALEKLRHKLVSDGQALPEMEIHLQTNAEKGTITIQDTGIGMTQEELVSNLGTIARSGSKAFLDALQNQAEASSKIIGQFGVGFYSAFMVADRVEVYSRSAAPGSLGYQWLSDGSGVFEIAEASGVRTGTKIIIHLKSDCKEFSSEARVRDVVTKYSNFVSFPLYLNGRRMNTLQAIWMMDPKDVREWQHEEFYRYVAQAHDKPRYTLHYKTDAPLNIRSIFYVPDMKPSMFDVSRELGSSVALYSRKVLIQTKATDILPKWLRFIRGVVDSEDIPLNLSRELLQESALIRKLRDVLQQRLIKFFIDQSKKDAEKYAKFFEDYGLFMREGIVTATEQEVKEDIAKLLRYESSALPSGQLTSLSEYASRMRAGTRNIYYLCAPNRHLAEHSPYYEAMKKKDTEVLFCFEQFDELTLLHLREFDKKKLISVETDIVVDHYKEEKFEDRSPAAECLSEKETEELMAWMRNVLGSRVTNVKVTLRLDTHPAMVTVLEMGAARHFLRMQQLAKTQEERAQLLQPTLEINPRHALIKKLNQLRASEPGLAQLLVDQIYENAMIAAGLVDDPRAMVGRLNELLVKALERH
Assay: In-cell target engagement assay (NanoBRET) in SHSY5Y cells
Assay type: cell-based
Conditions: tracer probe-385, 1 μM; live SHSY5Y cells; FIG. 4
Experimental: In-cell target engagement assays were performed as described in Robers M. B. et al. (2019) Quantitative, Real-Time Measurements of Intracellular Target Engagement Using Energy Transfer. In: Ziegler S., Waldmann H. (eds) Systems Chemical Biology. Methods in Molecular Biology, vol 1888. Humana Press, New York, N.Y.; Machleidt et al., ACS Chem. Biol. 2015, 10, 8, 1797-1804; or Vasta et al., Cell Chemical Biology 25, 206-214, Feb. 15, 2018; or as described herein.
Below is a protocol for transient transfection of SHSY5Y cells with NanoLuc® fusions. • 1. Cultivate SHSY5Y cells appropriately prior to assay in MEM w NEAA supplemented with 10% FBS. • 2. Remove medium from cell flask via aspiration, trypsinize, and allow cells to dissociate from the flask. • 3. Neutralize trypsin using growth medium and pellet cells via centrifugation at 200 g for 5 minutes. • 4. Aspirate medium and re-suspend cells into a single cell suspension using complete cell culture medium. • 5. Adjust the cell density to 300K/mL in cell culture medium in a sterile, conical tube. • 6. Prepare lipid:DNA complexes as follows (this covers two assay plates, adjust numbers for more plates) • a. Prepare a 10 μg/mL solution of DNA in Opti-MEM without serum. This solution should contain the following ratios of carrier DNA and DNA encoding NanoLuc® fusion. • i. 5.0 μg/mL of Transfection Carrier DNA (pGEM) • ii. […]

Which “displacement of the nanoBRET tracer molecule from nanoLuc TRAP1” value does the source give for `Cc1nn(C)c2sc(C(=O)Nc3ccc(F)c(S(=O)(=O)Nc4ccc(Cl)cc4)c3)cc12` [Compound 705] here?
Its value is “displacing the nanoBRET tracer molecule”.

Source: US20230174523A1, “BENZENESULFONAMIDE DERIVATIVES AS TRAP1 MODULATORS AND USES THEREOF” (Amathus Therapeutics, Inc., priority 2020, published 2023)
